Publication PMC7403138 (Clinical Pharmacokinetics, 2020)

Test: Population pharmacokinetic analysis
Assay type: in vivo, human

| FRator-oOH (base PK model) | between-subject variability on CLator (base PK model, CV%) | between-subject variability on FRator-oOH (base PK model, CV%) | between-subject variability on Vcator=Vcmet (base PK model, CV%) | decrease in logit(FRator-oOH) (coadministration of boosted ARVs) | central volume of distribution of atorvastatin and o-OH-atorvastatin (Vcator=Vcmet) (base PK model) | metabolite clearance (CLo-OH-ator) (base PK model) | o-OH-atorvastatin formed slower (presence vs absence of boosted ARVs, full dataset) | SMILES |
| --- | --- | --- | --- | --- | --- | --- | --- | --- |
| 11% | 94% | 131% | 137% | 225% |  |  |  | CC(C)c1c(C(=O)Nc2ccccc2)c(-c2ccccc2)c(-c2ccc(F)cc2)n1CC[C@@H](O)C[C@@H](O)CC(=O)O [atorvastatin] |
|  |  |  |  |  | 3170 L | 118 L/h | 88% | CC(C)c1c(C(=O)Nc2ccccc2O)c(-c2ccccc2)c(-c2ccc(F)cc2)n1CC[C@@H](O)C[C@@H](O)CC(=O)O [o-OH-atorvastatin, ortho-hydroxy atorvastatin] |
